Reference: PubChem BioAssay AID1963836 (Molecular Pharmacology Branch, DTP, NCI, 2024)

Test system: 857933-349-R-J2-PDC complex spheroid viability
Test: Anticancer human tumor 857933-349-R-J2-PDC patient-derived colon adenocarcinoma cell line growth inhibition [POLQ]
Settings: for IC50: curve of first compound; for viability, T/C: stronger effect = lower value
Description: Multicellular complex tumor spheroid response to Polymerase (POL) inhibitors (novobiocin, ART-558, RP6685) in combination with a variety of drugs and investigational agents in selected tumor cell lines
The POL inhibitors (novobiocin, ART-558, and RP6685) were evaluated both individually and in combination with standard of care and investigational anticancer small molecules within a complex spheroid model of solid tumors. . Complex spheroids include a stromal component modeled by human endothelial cells (HUVEC) and fibroblasts modeled by human mesenchymal stem cells (MSCs). The concentration ranges selected for each drug and investigational agent were based upon clinically achievable concentrations if the clinical Cmax of the agent was known.
Compounds. The drugs and investigational agents: novobiocin (NSC847541), ART-558 (NSC835418), RP-6685 (NSC848927), peposertib (NSC802822), ceralasertib (NSC780249), elimusertib (NSC800525), camonsertib (NSC841442), AZD-1390 (NSC803789), olaparib (NSC753686), talazoparib (NSC767125), rucaparib (NSC756644), sotorasib (NSC818433), MRTX-1133 (NSC836407), SN-38 (NSC673596), topotecan (NSC609699), epotoside (NSC141540), doxorubicin (NSC123127), gemcitabine (NSC613327), 5-fluorouracil (NSC19893), paclitaxel (NSC125973), vemurafenib (NSC761431), MSA-2 (NSC828583), SN-011 (NSC837082), adavosertib (NSC754352), prexasertib (NSC758257), carboplatin (NSC241240) and oxaliplatin (NSC266046), were obtained from the National Cancer Institute (NCI) Developmental Therapeutics Program Chemical Repository (21). The FDA-approved anticancer drug set is available from the Developmental Therapeutics Program at https://dtp.cancer.gov/organization/dscb/obtaining/. […] The stock solutions were prepared in dimethyl sulfoxide (DMSO, Sigma-Aldrich, St. Louis, MO, cat. D2650), except for the platinum compounds which were prepared in saline (Quality Biological, Gaithersburg, MD, cat. 114-055-101), at 800-fold the tested concentration and stored at -70 degrees C prior to their use. All drugs and investigational agents were tested over a range starting from a high concentration at or near the clinical Cmax and decreasing in half-log increments. If the clinical Cmax for an agent had not been determined, the highest concentration tested was 10 microM, except for SN-38, which was tested at a high concentration of 1 microM.
Cell Culture. All cells were maintained in an incubator at 37 degrees C and 5% CO2 with 95% humidity. The PDC lines were cultured according to standard operating procedures established by the NCI PDMR (https://pdmr.cancer.gov). Table 3 of the manuscript, lists the cell lines along with the number of the three cell types plated to form the mct-spheroids and media for tumor cell growth. After thawing, all PDC lines, except 997537-175-T-J1-PDC and 415267-285-R-J2-PDC, were cultured in Matrigel-coated flasks prepared with a working solution of 1X Ham's F-12 nutrient mix, without supplementation (Thermo Fisher Scientific, cat. 11765054), 100 U/mL penicillin-streptomycin (Thermo Fisher Scientific, cat. 15140122), and 2.5% Matrigel (Corning Inc., Corning, NY, cat. 354248) for the first three passages. The two PDC lines 997537-175-T-J1-PDC and 415267-285-R-J2-PDC were cultured on uncoated flasks. The 857933-349-R-J2-PDC line was cultured in 6C/Colon 1B media containing advanced DMEM/F-12 (Thermo Fisher Scientific, cat. 12634028), 10 mM HEPES (Thermo Fisher Scientific, cat. 15630080), 1X GlutaMAX supplement (Thermo Fisher Scientific, cat. 35050061), 0.1 mg/mL primocin (InvivoGen, San Diego, CA, cat. ant-pm-2), 10% defined fetal bovine serum, heat inactivated (HyClone Laboratories Inc., Logan, UT, cat. SH30070.03HI), 50% L-WRN conditioned media (ATCC, cat. CRL-3276), 1.25 mM N-Acetyl-L-cysteine (Sigma-Aldrich, cat. A9165), 10 mM nicotinamide (Sigma-Aldrich, cat. N0636), 1X B-27 supplement (Thermo Fisher Scientific, cat. 17504044), 1X N-2 supplement (Thermo Fisher Scientific, cat. […]
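Further: spheroids exposed to compounds for seven days before readout.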

## CC1COCCN1c1cc(-c2ccnn2C)c2ccnc(-c3ccn[nH]3)c2n1 (configuration not stated) + Cc1cccc(N(C)C(=O)C2C(O)CCN2c2nc(C)cc(C(F)(F)F)c2C#N)c1
Second compound 0.0316 µM
  IC50: 186 nM
Second compound 0.1 µM
  IC50: 212 nM
Second compound 0.316 µM
  IC50: 235 nM
Second compound 1 µM
  IC50: 181 nM
Second compound 3.16 µM
  IC50: 153 nM
Second compound 10 µM
  IC50: 92.5 nM
Second compound 0.0316 µM, first compound 0.0316 µM
  viability, T/C: 58.7%
Second compound 0.0316 µM, first compound 0.1 µM
  viability, T/C: 55.3%
Second compound 0.0316 µM, first compound 0.316 µM
  viability, T/C: 44%
Second compound 0.0316 µM, first compound 1 µM
  viability, T/C: 29.7%
Second compound 0.0316 µM, first compound 3.16 µM
  viability, T/C: 32.7%
Second compound 0.0316 µM, first compound 10 µM
  viability, T/C: 36.6%
Second compound 0.1 µM, first compound 0.0316 µM
  viability, T/C: 71.6%
Second compound 0.1 µM, first compound 0.1 µM
  viability, T/C: 73.2%
Second compound 0.1 µM, first compound 0.316 µM
  viability, T/C: 38.1%
Second compound 0.1 µM, first compound 1 µM
  viability, T/C: 34.2%
Second compound 0.1 µM, first compound 3.16 µM
  viability, T/C: 42.9%
Second compound 0.1 µM, first compound 10 µM
  viability, T/C: 37.2%
Second compound 0.316 µM, first compound 0.0316 µM
  viability, T/C: 73.2%
Second compound 0.316 µM, first compound 0.1 µM
  viability, T/C: 68.3%
Second compound 0.316 µM, first compound 0.316 µM
  viability, T/C: 43.9%
Second compound 0.316 µM, first compound 1 µM
  viability, T/C: 31.3%
Second compound 0.316 µM, first compound 3.16 µM
  viability, T/C: 49.6%
Second compound 0.316 µM, first compound 10 µM
  viability, T/C: 45.4%
Second compound 1 µM, first compound 0.0316 µM
  viability, T/C: 58.9%
Second compound 1 µM, first compound 0.1 µM
  viability, T/C: 63.4%
Second compound 1 µM, first compound 0.316 µM
  viability, T/C: 37.6%
Second compound 1 µM, first compound 1 µM
  viability, T/C: 34.4%
Second compound 1 µM, first compound 3.16 µM
  viability, T/C: 42.6%
Second compound 1 µM, first compound 10 µM
  viability, T/C: 43.4%
Second compound 3.16 µM, first compound 0.0316 µM
  viability, T/C: 65.9%
Second compound 3.16 µM, first compound 0.1 µM
  viability, T/C: 55.4%
Second compound 3.16 µM, first compound 0.316 µM
  viability, T/C: 44.6%
Second compound 3.16 µM, first compound 1 µM
  viability, T/C: 38.3%
Second compound 3.16 µM, first compound 3.16 µM
  viability, T/C: 43%
Second compound 3.16 µM, first compound 10 µM
  viability, T/C: 45.6%
Second compound 10 µM, first compound 0.0316 µM
  viability, T/C: 49.8%
Second compound 10 µM, first compound 0.1 µM
  viability, T/C: 59.9%
Second compound 10 µM, first compound 0.316 µM
  viability, T/C: 40%
Second compound 10 µM, first compound 1 µM
  viability, T/C: 37.6%
Second compound 10 µM, first compound 3.16 µM
  viability, T/C: 47.5%
Second compound 10 µM, first compound 10 µM
  viability, T/C: 34.9%
